Values of other authors, collected in patent US20050261237A1, “Nucleoside phosphonate analogs” (priority 2003, published 2005).

Key:
[1] = target: PNP enzyme from Mycobacterium tuberculosis (MtPNP) (Mycobacterium tuberculosis, UniProt P9WP01); conditions: Lewandowics A. et al., Biochemistry (2003) 42, 6057
HIV = conditions: described in the literature; 61.1 with Base=G

PNP enzyme from Mycobacterium tuberculosis (MtPNP), sequence (P9WP01 whole entry): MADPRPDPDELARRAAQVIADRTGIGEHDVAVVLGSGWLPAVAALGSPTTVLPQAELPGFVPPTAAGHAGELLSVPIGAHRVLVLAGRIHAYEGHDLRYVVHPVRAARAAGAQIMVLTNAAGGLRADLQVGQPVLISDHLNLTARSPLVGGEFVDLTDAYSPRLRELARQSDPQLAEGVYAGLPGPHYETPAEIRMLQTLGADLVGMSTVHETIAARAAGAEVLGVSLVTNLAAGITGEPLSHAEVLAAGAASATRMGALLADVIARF

Q: With `Nc1nc2c(CN3C[C@H](CO)[C@@H](O)C3)c[nH]c2c(=O)[nH]1` [DADMe-ImmG] as the molecule, how does the “inhibition of the PNP enzyme from Mycobacterium tuberculosis (MtPNP)” value [1] read?
A: Its value is “highly potent”.

Q: For `Nc1nc(=O)c2ncn([C@@H]3C[C@H](CO)[C@H]3CO)c2[nH]1` [lubocavir], which anti-HIV activity (HIV) is on record?
A: The anti-HIV activity was 30 µM.
